Laboratory results from patent US8975417B2, “Pyrazolopyrrolidine derivatives and their use in the treatment of disease” (Novartis AG, priority 2013, dated 2015).

Experiments:
MV-4-11 cells = experiment: Cell growth inhibition assay (CellTiter-Glo), MV-4-11; format: cell-based; details: Homo sapiens, MV4-11, read-out: MV-4-11 TGI
How it was run: (§1)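 Dose-response over 3-fold dilutions from 10 μM; 0.1% DMSO control. Endpoint: CellTiter-Glo ATP signal, background-subtracted and day 0-corrected.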

K-562 cells = experiment: Cell growth inhibition assay (CellTiter-Glo), K-562; format: cell-based, human; details: Homo sapiens, K562, read-out: K-562 TGI
How it was run: as §1

His-Brd3(20-477) = His-Brd3(20-477) (Homo sapiens (Human), UniProt Q15059); experiment: TR-FRET in-vitro binding assay for BRD3; details: biochemical
How it was run: (§2)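 Eight-point dilution series tested against in-house His-BRD2(60-472), BRD3(20-477) or BRD4(44-477) (45 nM in dispensed solution) binding acetyl-histone H4 (AcK5,8,12,16; 60 nM in dispensed solution). Incubation 35 min at 30 °C, pH 7.5 HEPES buffer; detection by TR-FRET using Eu-anti-His6 and streptavidin-allophycocyanin.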

THP-1 cells = experiment: Cell growth inhibition assay (CellTiter-Glo), THP-1; format: cell-based; details: Homo sapiens, read-out: THP-1 TGI
How it was run: as §1

His-Brd4(44-477) = His-Brd4(44-477) (Homo sapiens (Human), UniProt O60885); experiment: TR-FRET in-vitro binding assay for BRD4; details: biochemical
How it was run: as §2

His-Brd2(60-472) = His-Brd2(60-472) (Homo sapiens (Human), UniProt P25440); experiment: TR-FRET in-vitro binding assay for BRD2; details: biochemical
How it was run: as §2

[1] = molecular target: His-CREBBP (1081-1197) bromodomain (Homo sapiens (Human), UniProt Q92793); experiment: AlphaScreen in-vitro binding assay for CREBBP; details: biochemical
How it was run: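 Ni-chelate acceptor and streptavidin donor beads (45 µg/mL each, in 50 mM HEPES pH 7.5, 150 mM NaCl, 0.02% BSA) were then added for 60 min at room temperature. IC50 came from 8-point non-linear regression.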

Chain of His-CREBBP (1081-1197) bromodomain (Q92793 1081-1197): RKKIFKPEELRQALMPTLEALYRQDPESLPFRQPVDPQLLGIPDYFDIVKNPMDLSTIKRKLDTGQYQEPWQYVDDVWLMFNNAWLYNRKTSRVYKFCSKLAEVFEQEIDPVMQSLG
Chain of His-Brd2(60-472) (P25440 60-472): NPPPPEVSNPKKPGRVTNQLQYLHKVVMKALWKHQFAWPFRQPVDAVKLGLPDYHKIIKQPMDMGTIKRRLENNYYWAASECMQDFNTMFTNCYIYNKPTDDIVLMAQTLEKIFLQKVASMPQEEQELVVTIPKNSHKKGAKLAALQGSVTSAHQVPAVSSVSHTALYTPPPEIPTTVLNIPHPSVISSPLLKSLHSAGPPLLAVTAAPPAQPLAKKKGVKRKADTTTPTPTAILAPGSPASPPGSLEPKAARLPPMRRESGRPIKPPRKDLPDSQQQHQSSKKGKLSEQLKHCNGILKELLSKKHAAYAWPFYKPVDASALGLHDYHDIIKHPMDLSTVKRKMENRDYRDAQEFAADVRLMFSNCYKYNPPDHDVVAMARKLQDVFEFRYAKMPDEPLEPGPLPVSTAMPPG
Chain of His-Brd3(20-477) (Q15059 20-477): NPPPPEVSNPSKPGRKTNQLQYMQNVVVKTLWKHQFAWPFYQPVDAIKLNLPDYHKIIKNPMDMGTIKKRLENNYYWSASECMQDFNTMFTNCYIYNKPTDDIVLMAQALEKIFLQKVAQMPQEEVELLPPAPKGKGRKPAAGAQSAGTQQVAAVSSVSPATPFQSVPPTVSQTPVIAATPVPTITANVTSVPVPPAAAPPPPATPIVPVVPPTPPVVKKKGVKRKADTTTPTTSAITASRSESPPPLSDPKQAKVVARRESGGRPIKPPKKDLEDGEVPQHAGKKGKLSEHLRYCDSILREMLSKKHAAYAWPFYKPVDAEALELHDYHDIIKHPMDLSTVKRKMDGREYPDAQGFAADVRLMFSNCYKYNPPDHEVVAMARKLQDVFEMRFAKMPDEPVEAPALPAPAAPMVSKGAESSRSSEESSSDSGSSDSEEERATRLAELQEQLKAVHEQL

| SMILES | IC (total growth inhibition) (MV-4-11 cells) [µM] | IC (total growth inhibition) (K-562 cells) [µM] | IC50 (His-Brd3(20-477)) [nM] | IC (total growth inhibition) (THP-1 cells) [µM] | IC50 (His-Brd4(44-477)) [nM] | IC50 (His-Brd2(60-472)) [nM] | IC50 [1] [nM] |
| --- | --- | --- | --- | --- | --- | --- | --- |
| COc1ncccc1-n1nc(C)c2c1C(=O)N(c1cc(C)c3nnc(C)n3c1)C2c1ccc(Cl)cc1F (centres unmarked) [Example 184, 4-(4-chloro-2-fluorophenyl)-5-(3,8-dimethyl-[1,2,4]triazolo[4,3-a]pyridin-6-yl)-1-(2-methoxypyridin-3-yl)-3-methyl-4,5-dihydropyrrolo[3,4-c]pyrazol-6(1H)-one] | 0.136 | > 10 | 36 | 0.337 | 29 | 47 | 24000 |
| COc1ncc(-n2nc3c(c2C(F)(F)F)C(c2ccc(Cl)cc2)N(c2cc(Cl)c(=O)n(C)c2)C3=O)c(OC)n1 (centres unmarked) [Example 47, 5-(5-chloro-1-methyl-6-oxo-1,6-dihydropyridin-3-yl)-4-(4-chlorophenyl)-2-(2,4-dimethoxypyrimidin-5-yl)-3-(trifluoromethyl)-4,5-dihydropyrrolo[3,4-c]pyrazol-6(2H)-one] | 0.158 | > 10 | 280 | 0.755 | 270 | 210 | 1500 |
| COc1ncccc1-n1nc2c(c1C)C(c1ccc(Cl)cc1F)N(c1cc(C)c3nnc(C)n3c1)C2=O (centres unmarked) [Example 194, 4-(4-chloro-2-fluorophenyl)-5-(3,8-dimethyl-[1,2,4]triazolo[4,3-a]pyridin-6-yl)-2-(2-methoxypyridin-3-yl)-3-methyl-4,5-dihydropyrrolo[3,4-c]pyrazol-6(2H)-one] | 0.0936 | > 10 | 65 | 0.174 | 45 | 90 | 5200 |
| Cc1nn(C(C)C)c2c1C(c1ccc(F)cc1F)N(c1cc(C)c3nnc(C)n3c1)C2=O (centres unmarked) [Example 174, 4-(2,4-difluorophenyl)-5-(3,8-dimethyl-[1,2,4]triazolo[4,3-a]pyridin-6-yl)-1-isopropyl-3-methyl-4,5-dihydropyrrolo[3,4-c]pyrazol-6(1H)-one] | 0.0588 | > 10 | 72 | 0.105 | 52 | 110 | 12000 |
| Cc1c2c(nn1C(C)C)C(=O)N(c1cc(Cl)c(=O)n(C)c1)C2c1ccc(Cl)cc1 (centres unmarked) [Example 65, 5-(5-chloro-1-methyl-6-oxo-1,6-dihydropyridin-3-yl)-4-(4-chlorophenyl)-2-isopropyl-3-methyl-4,5-dihydropyrrolo[3,4-c]pyrazol-6(2H)-one] | 0.109 | > 10 | 130 | 0.217 | 200 | 240 | 420 |
| Cc1nn(C(C)C)c2c1C(c1ccc(Cl)cc1)N(c1cc(C)c(=O)n(C)c1)C2=O (centres unmarked) [Example 63, 4-(4-chlorophenyl)-5-(1,5-dimethyl-6-oxo-1,6-dihydropyridin-3-yl)-1-isopropyl-3-methyl-4,5-dihydropyrrolo[3,4-c]pyrazol-6(1H)-one] | 0.0509 | > 10 | 88 | 0.115 | 90 | 130 | 2500 |
| Cc1nn(C(C)C)c2c1C(c1ccc(Cl)cc1F)N(c1cc(C)c(=O)n(C)c1)C2=O (centres unmarked) [Example 180, 4-(4-chloro-2-fluorophenyl)-5-(1,5-dimethyl-6-oxo-1,6-dihydropyridin-3-yl)-1-isopropyl-3-methyl-4,5-dihydropyrrolo[3,4-c]pyrazol-6(1H)-one] | 0.108 | > 10 | 71 | 0.186 | 83 | 89 | 2400 |
| COc1ncccc1-n1nc(C)c2c1C(=O)N(c1cc(C)c(=O)n(C)c1)C2c1ccc(Cl)cc1 (centres unmarked) [Example 71, 4-(4-chlorophenyl)-5-(1,5-dimethyl-6-oxo-1,6-dihydropyridin-3-yl)-1-(2-methoxypyridin-3-yl)-3-methyl-4,5-dihydropyrrolo[3,4-c]pyrazol-6(1H)-one] | 0.103 | > 10 | 58 | 0.178 | 53 | 41 | 5900 |
| CCn1nc(C)c2c1C(=O)N(c1cc(C)c3nnc(C)n3c1)C2c1ccc(Cl)cc1F (centres unmarked) [Example 185, 4-(4-chloro-2-fluorophenyl)-5-(3,8-dimethyl-[1,2,4]triazolo[4,3-a]pyridin-6-yl)-1-ethyl-3-methyl-4,5-dihydropyrrolo[3,4-c]pyrazol-6(1H)-one] | 0.0427 | > 10 | 36 | 0.0877 | < 37 | 71 | 14200 |
| Cc1cc(N2C(=O)c3c(c(C(F)(F)F)nn3C3CC3)C2c2ccc(Cl)cc2)cn(C)c1=O (centres unmarked) [Example 45, 4-(4-chlorophenyl)-1-cyclopropyl-5-(1,5-dimethyl-6-oxo-1,6-dihydropyridin-3-yl)-3-(trifluoromethyl)-4,5-dihydropyrrolo[3,4-c]pyrazol-6(1H)-one] | 0.373 | > 10 | 100 | 0.698 | 85 | 60 | 4800 |
| CCn1nc(C)c2c1C(=O)N(c1cc(C)c3nnc(C)n3c1)C2c1ccc(F)cc1F (centres unmarked) [Example 181, 4-(2,4-difluorophenyl)-5-(3,8-dimethyl-[1,2,4]triazolo[4,3-a]pyridin-6-yl)-1-ethyl-3-methyl-4,5-dihydropyrrolo[3,4-c]pyrazol-6(1H)-one] | 0.0886 | > 10 | 40 | 0.117 | 34 | 62 | > 37000 |
| COc1ncc(-n2nc3c(c2C)C(c2ccc(Cl)cc2)N(c2cc(C)c(=O)n(C)c2)C3=O)c(OC)n1 (centres unmarked) [Example 56, 4-(4-chlorophenyl)-2-(2,4-dimethoxypyrimidin-5-yl)-5-(1,5-dimethyl-6-oxo-1,6-dihydropyridin-3-yl)-3-methyl-4,5-dihydropyrrolo[3,4-c]pyrazol-6(2H)-one] | 0.0981 | > 10 | 61 | 0.124 | 95 | 69 | 560 |
| CCc1nn(C2CC2)c2c1C(c1ccc(Cl)cc1)N(c1cc(C)c(=O)n(C)c1)C2=O (centres unmarked) [Example 69] | 0.0466 | > 10 | 28 | 0.0983 | 27 | 26 | 4100 |
| CCn1nc2c(c1C)C(c1ccc(F)cc1F)N(c1cc(C)c3nnc(C)n3c1)C2=O (centres unmarked) [Example 182, 4-(2,4-difluorophenyl)-5-(3,8-dimethyl-[1,2,4]triazolo[4,3-a]pyridin-6-yl)-2-ethyl-3-methyl-4,5-dihydropyrrolo[3,4-c]pyrazol-6(2H)-one] | 0.12 | > 10 | 51 | 0.217 | 46 | 120 | 27000 |
| COc1ncc(-n2nc3c(c2C(C)C)C(c2ccc(Cl)cc2)N(c2cc(C)c4nnc(C)n4c2)C3=O)c(OC)n1 (centres unmarked) [Example 67, 4-(4-chlorophenyl)-2-(2,4-dimethoxypyrimidin-5-yl)-5-(3,8-dimethyl-[1,2,4]triazolo-[4,3-a]pyridin-6-yl)-3-isopropyl-4,5-dihydropyrrolo[3,4-c]pyrazol-6(2H)-one] | 0.0196 | > 10 | 28 | 0.0385 | 24 | 43 | 2800 |
| CCc1c2c(nn1C1CC1)C(=O)N(c1cc(C)c(=O)n(C)c1)C2c1ccc(Cl)cc1 (centres unmarked) [Example 68] | 0.0692 | > 10 | 40 | 0.117 | 44 | 37 | 950 |
| Cc1nn(C2CC2)c2c1C(c1ccc(Cl)cc1)N(c1cc(C)c3nnc(C(F)F)n3n1)C2=O (centres unmarked) [Example 195, 4-(4-chlorophenyl)-1-cyclopropyl-5-(3-(difluoromethyl)-8-methyl-[1,2,4]triazolo[4,3-b]pyridazin-6-yl)-3-methyl-4,5-dihydropyrrolo[3,4-c]pyrazol-6(1H)-one] | 0.0452 | > 10 | 16 | 0.0804 | < 11 | 20 | > 37000 |
